Results from patent US9346769B2, “Tetrazolones as inhibitors of fatty acid synthase” (Infinity Pharmaceuticals, Inc., priority 2010, dated 2016).

Molecular target: T1, human FASN (Homo sapiens, UniProt P49327)
T1 construct: was purified from SKBR3 cells using procedures modified from those in Jayakumar et al; endogenous in cells; host or cells: SKBR3 human breast cancer cells (ATCC); Endogenous enzyme purified by ammonium sulfate precipitation and a mono Q column
Test: FASN NADPH Consumption Assay
Format: biochemical
Conditions: human FASN purified from SKBR3 cells; starred symbols
In short: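 Native human FASN purified from SKBR3 cells (60 nM final) preincubated 30 min at 37 °C with compound (2.4 nM–40 μM, 4% DMSO) in pH 7.0 phosphate buffer with 5 mM DTT. Reaction started with 0.2 mM NADPH, 50 μM butyryl-CoA, 0.5 mM malonyl-CoA; NADPH consumption followed kinetically by fluorescence (ex 340/em 460 nm); IC50 from logistic fit.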

T1 sequence (P49327 whole entry): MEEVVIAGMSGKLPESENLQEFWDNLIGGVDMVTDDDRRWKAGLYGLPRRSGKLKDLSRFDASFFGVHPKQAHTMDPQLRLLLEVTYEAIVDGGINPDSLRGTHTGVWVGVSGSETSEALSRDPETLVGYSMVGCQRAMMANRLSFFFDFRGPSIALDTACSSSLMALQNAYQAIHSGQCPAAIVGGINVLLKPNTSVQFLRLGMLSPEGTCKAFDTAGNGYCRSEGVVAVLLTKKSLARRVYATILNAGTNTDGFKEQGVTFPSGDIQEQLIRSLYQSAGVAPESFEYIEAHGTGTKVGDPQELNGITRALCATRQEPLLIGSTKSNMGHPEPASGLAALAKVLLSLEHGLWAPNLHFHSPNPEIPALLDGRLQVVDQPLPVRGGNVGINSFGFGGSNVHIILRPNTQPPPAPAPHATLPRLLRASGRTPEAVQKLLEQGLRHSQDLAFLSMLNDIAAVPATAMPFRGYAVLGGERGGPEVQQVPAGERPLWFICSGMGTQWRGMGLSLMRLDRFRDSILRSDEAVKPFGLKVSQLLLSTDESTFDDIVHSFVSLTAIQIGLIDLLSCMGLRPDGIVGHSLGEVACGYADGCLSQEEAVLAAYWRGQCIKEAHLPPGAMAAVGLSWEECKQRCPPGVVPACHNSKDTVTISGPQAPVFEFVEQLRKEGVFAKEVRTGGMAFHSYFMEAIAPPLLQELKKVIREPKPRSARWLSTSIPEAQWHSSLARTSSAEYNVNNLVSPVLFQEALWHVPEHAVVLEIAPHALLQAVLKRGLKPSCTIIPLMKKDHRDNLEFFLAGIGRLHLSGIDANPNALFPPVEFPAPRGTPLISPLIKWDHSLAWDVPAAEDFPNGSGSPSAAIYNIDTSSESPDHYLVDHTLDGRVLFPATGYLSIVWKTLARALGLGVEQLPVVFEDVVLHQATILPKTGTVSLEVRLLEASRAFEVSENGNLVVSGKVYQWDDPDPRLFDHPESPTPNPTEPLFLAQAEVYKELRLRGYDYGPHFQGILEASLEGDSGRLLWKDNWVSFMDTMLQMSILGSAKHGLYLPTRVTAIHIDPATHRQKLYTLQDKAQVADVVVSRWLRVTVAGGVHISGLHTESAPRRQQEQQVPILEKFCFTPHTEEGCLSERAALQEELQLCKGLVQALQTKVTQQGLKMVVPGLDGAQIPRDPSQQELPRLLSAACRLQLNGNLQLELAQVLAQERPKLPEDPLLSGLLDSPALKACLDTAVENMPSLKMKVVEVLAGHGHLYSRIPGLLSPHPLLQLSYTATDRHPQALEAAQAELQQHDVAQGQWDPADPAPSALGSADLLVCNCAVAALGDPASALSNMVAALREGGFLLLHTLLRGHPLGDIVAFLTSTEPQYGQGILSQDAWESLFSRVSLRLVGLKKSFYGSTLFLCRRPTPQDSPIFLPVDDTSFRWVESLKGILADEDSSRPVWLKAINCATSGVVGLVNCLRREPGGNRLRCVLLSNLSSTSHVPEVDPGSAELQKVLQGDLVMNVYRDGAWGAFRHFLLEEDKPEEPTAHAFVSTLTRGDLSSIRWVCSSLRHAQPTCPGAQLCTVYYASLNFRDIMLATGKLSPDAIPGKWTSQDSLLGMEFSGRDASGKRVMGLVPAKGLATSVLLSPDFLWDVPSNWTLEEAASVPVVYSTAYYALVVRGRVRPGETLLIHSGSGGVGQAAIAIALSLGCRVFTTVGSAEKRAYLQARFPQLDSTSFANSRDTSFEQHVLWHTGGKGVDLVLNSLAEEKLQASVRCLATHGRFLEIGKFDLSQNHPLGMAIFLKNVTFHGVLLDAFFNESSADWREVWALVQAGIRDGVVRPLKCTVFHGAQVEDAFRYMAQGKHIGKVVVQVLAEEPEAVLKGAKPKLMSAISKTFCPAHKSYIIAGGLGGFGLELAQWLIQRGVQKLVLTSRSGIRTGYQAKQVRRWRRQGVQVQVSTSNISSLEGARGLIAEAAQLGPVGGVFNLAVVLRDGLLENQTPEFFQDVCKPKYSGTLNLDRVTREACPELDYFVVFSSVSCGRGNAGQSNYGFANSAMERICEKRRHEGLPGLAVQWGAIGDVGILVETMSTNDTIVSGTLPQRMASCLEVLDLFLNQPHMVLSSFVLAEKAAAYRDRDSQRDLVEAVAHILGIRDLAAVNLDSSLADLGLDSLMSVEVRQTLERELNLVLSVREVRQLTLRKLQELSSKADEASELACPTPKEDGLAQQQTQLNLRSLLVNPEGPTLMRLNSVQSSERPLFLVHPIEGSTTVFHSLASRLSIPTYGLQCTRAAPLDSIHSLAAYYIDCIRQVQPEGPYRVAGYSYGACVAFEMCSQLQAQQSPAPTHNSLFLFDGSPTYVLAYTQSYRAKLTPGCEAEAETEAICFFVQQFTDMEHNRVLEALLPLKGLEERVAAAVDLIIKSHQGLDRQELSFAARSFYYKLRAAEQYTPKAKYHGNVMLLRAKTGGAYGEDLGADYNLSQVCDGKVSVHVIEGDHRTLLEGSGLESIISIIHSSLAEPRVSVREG

IC50 [nM]	SMILES
> 10000	CCN(C(=O)n1nnn(-c2cccc(OC)c2)c1=O)C1CCCCC1
1000 to 10000	CCN(C(=O)n1nnn(-c2cccs2)c1=O)C1CCCCC1
> 10000	CCN(C(=O)n1nnn(-c2ccsc2)c1=O)C1CCCCC1
> 10000	CCN(C(=O)n1nnn(-c2c(C)nn(C)c2C)c1=O)C1CCCCC1
> 10000	CCN(C(=O)n1nnn(-c2c(C)noc2C)c1=O)C1CCCCC1
1000 to 10000	CC(C)(C)OC(=O)N(C(=O)n1nnn(-c2c(F)cccc2F)c1=O)c1ccco1

Molecular target: T1, human FASN
Test: FASN Scintillation Proximity Flashplate Assay
Format: biochemical
Conditions: human FASN purified from SKBR3 cells; unstarred symbols
Description: Human FASN protein (SEQ ID NO. 1) was purified from SKBR3 cells using procedures modified from those in Jayakumar et al. PNAS 1995, 92:8695-8699. SKBR3 cells were obtained from ATCC and grown in DMEM high glucose medium supplemented with 10% FBS, 1 μg/mL bovine pancreas insulin, 100 U/mL penicillin and 100 µg/mL streptomycin. The confluent cells were trypsinized and washed three times with PBS buffer before frozen in liquid N2 and stored at −80° C. Frozen cells were thawed on ice and resuspended in lysis buffer (25 mM Tris-HCl, pH 7.0, 15 mM NaCl, 1 mM EDTA, and 1 mM DTT) with protease inhibitors. The cells were lysed by sonication, and the cell debris was removed by centrifugation at 20,000 rpm for 30 min. To the supernatant, neutralized saturated ammonium sulfate solution was added to a final concentration of 35%. The solution was left on ice for 1 hr, and the precipitated proteins were harvested by centrifugation at 20,000 rpm for 30 min. The proteins were redissolved in lysis buffer without NaCl and loaded on a mono Q column. Bound proteins were eluted with a linear gradient of NaCl in lysis buffer. Each fraction was analyzed by SDS-PAGE and FASN NADPH consumption assay. The fractions containing FASN were pooled and concentrated to 2-3 mg/mL. Glycerol was added to 20%, and the protein was frozen in liquid N2 and stored at −80° C.
Acetyl-coenzyme A, malonyl-coenzyme A, NADPH, bovine gamma globulin, and ORLISTAT were purchased from Sigma (St. Louis, Mo.). Tris(2-carboxyethyl) phosphine hydrochloride (TCEP) was purchased from Pierce Biotechnologies (Rockford, Ill.). [^3H]-acetyl-coenzyme A was purchased from Moravek Biochemicals (Brea, CA). FlashPlate™ PLUS phospholipid 96-well scintillant coated microplates were purchased from Perkin Elmer Life and Analytical Sciences (Shelton, CT). The method of the FASN Scintillation Proximity FlashPlate assay is similar to that described in Weiss and Glickman Assay Drug Dev Technol 2003, 1:161-6. In a 96-well polypropylene microplate, a dilution series (typical concentrations 60 nM-1.0 mM) of test compounds were prepared in DMSO followed by a 20-fold dilution into FASN assay buffer (50 mM potassium phosphate, pH 7.0, 1.0 mM EDTA, 0.01% NP-40), of which 5.0 μL each was transferred to a FlashPlate® PLUS 96-well plate and mixed with 35 μL FASN assay buffer plus 0.5 mg/mL bovine gamma globulin and 1 mM TCEP. FASN protein (10 μL, 10 nM) was added per well, and the microplate was incubated at 37° C. for 30 min. 10 μL of 20 mM NADPH was added, and the reaction was initiated by addition of […] substrate mixture to final concentrations of 1 nM FASN, 100 μM acetyl-coenzyme A, 6 μCi [^3H]-acetyl-coenzyme A, 300 μM malonyl-coenzyme A, 2 mM NADPH, 0.5 mg/mL bovine gamma globulin, and 1 mM TCEP in a volume of 100 μL per well. Assay plates were incubated for 2 hr at 37° C. and the reaction was stopped with 2 μL of 2.5 mM stock solution of ORLISTAT in DMSO to ˜50 μM. The plates were read in a Wallac 1450 Microbeta Plus liquid scintillation counter (Perkin Elmer, Waltham, Mass.), and counts per minute (CPM) were collected over 2 min. Each inhibitor well CPM was compared to the maximum FASN enzyme activity (Max) CPM and the background (Min) CPM, as measured by omission of FASN enzyme in the background well. % Inhibition values were calculated, and curves were fitted by a four-parameter logistic function to yield IC50 values:
Compounds were assayed as inhibitors of human FASN using the above-described FASN Scintillation Proximity Flashplate Assay (IC50; nM) or FASN NADPH Consumption Assay (*) (IC50; nM). The corresponding activity of the isolated compound is also provided along with the measured mass (ES^+).

IC50 [nM]	SMILES
100 to 200	COc1ccc(N(C(=O)n2nnn(-c3ccccc3C#N)c2=O)C2CCCCC2)cc1C(=O)O
< 15	CCN(C(=O)n1nnn(-c2ccccc2Oc2ccccc2)c1=O)c1ccc(C(=O)O)cc1
< 15	CCN(C(=O)n1nnn(-c2c(F)cccc2F)c1=O)c1ccc(F)cc1F
15 to 100	CCN(C(=O)n1nnn(-c2c(F)cccc2F)c1=O)c1cc(C(=O)O)ccc1OC(C)C
< 15	COc1ccc(N(C(=O)n2nnn(-c3c(F)cccc3F)c2=O)C(C)C)cc1C(=O)OCc1ccccc1
< 15	CCNC(=O)Nc1ccc(N(CC)C(=O)n2nnn(-c3c(F)cccc3F)c2=O)c(F)c1
< 15	CCN(C(=O)n1nnn(-c2c(F)cccc2F)c1=O)c1ccc(N)cc1F
< 15	CCN(C(=O)n1nnn(-c2c(F)cccc2F)c1=O)c1ccc(NC(C)=O)cc1F
< 15	O=C(O)COc1ccc(N(C(=O)n2nnn(-c3c(F)cccc3F)c2=O)C2CCCCC2)cc1
< 15	O=C(O)[C@@H]1CCCN1c1ccc(N(C(=O)n2nnn(-c3c(F)cccc3F)c2=O)C2CCCCC2)cc1
< 15	CCN(C(=O)n1nnn(-c2c(F)cccc2F)c1=O)c1cc(C(=O)O)ccc1OCCc1ccccc1
< 15	CCN(C(=O)n1nnn(-c2c(F)cccc2F)c1=O)c1c(F)cccc1F
< 15	CCCCOc1ccc(C(=O)O)cc1N(CC)C(=O)n1nnn(-c2c(F)cccc2F)c1=O
< 15	CCN(C(=O)n1nnn(-c2c(F)cccc2F)c1=O)c1ccccc1F
< 15	CCN(C(=O)n1nnn(-c2c(F)cccc2F)c1=O)c1ccc(NS(C)(=O)=O)cc1F
< 15	COc1ccc(C(=O)OCc2ccccc2)cc1N(CCCc1ccccc1)C(=O)n1nnn(-c2c(F)cccc2F)c1=O
< 15	CCN(C(=O)n1nnn(-c2c(F)cccc2F)c1=O)c1ccc(C(=O)O)cc1Oc1ccccc1
< 15	CCN(C(=O)n1nnn(-c2c(F)cccc2F)c1=O)c1ccccc1Oc1ccccc1
15 to 100	CCN(C(=O)n1nnn(-c2c(F)cccc2F)c1=O)c1ccc(OC)c(C(=O)O)c1
< 15	CCN(C(=O)n1nnn(-c2c(F)cccc2F)c1=O)c1ccc(C(=O)O)c(OC)c1
< 15	O=C(N(c1ccccc1)C1CCCCC1)n1nnn(-c2c(F)cccc2F)c1=O
< 15	CCNC(=O)N1CCN(c2ccc(N(C(=O)n3nnn(-c4c(F)cccc4F)c3=O)C3CCCCC3)cc2C(=O)O)CC1
< 15	CCOC(=O)N1CCN(c2ccc(N(C(=O)n3nnn(-c4c(F)cccc4F)c3=O)C3CCCCC3)cc2C(=O)O)CC1
< 15	CCOC(=O)c1cc(C)n(-c2ccc(N(C(=O)n3nnn(-c4c(F)cccc4F)c3=O)C3CCCCC3)cc2C(=O)O)n1
< 15	CCOC(=O)c1cc(C)n(-c2ccc(N(C(=O)n3nnn(-c4c(F)cccc4F)c3=O)C3CCCCC3)cc2C(=O)OCc2ccccc2)n1
< 15	O=C(O)c1cc(N(C(=O)n2nnn(-c3c(F)cccc3F)c2=O)C2CCCCC2)ccc1OC(=O)N1CCOCC1
< 15	CS(=O)(=O)N1CCN(c2ccc(N(C(=O)n3nnn(-c4c(F)cccc4F)c3=O)C3CCCCC3)cc2C(=O)O)CC1

IC50 [nM]	SMILES
< 15	COc1ccc(N(C(=O)n2nnn(-c3c(F)cccc3F)c2=O)C2CCCCC2)cc1C(=O)NC(C)(C)C(=O)O
< 15	CNC(=O)c1cc(N(C(=O)n2nnn(-c3c(F)cccc3F)c2=O)C2CCCCC2)ccc1OC
< 15	CC(=O)N1CCN(c2ccc(N(C(=O)n3nnn(-c4c(F)cccc4F)c3=O)C3CCCCC3)cc2C(=O)O)CC1
< 15	Cc1ccc(C)n1-c1ccc(N(C(=O)n2nnn(-c3c(F)cccc3F)c2=O)C2CCCCC2)cc1C(=O)O
15 to 100	CCN1CCN(c2ccc(N(C(=O)n3nnn(-c4c(F)cccc4F)c3=O)C3CCCCC3)cc2C(=O)O)CC1
< 15	COC(=O)c1cc(N(C(=O)n2nnn(-c3c(F)cccc3F)c2=O)C2CCCCC2)ccc1OC
< 15	COCCOc1ccc(N(C(=O)n2nnn(-c3c(F)cccc3F)c2=O)C2CCCCC2)cc1C(=O)O
< 15	COc1ccc(N(C(=O)n2nnn(-c3c(F)cccc3F)c2=O)C2CCCCC2)cc1C(=O)N(C)C
< 15	COc1ccc(N(C(=O)n2nnn(-c3c(F)cccc3F)c2=O)C2CCCCC2)cc1C(N)=O
< 15	CC(C)(C)OC(=O)N1CCN(c2ccc(N(C(=O)n3nnn(-c4c(F)cccc4F)c3=O)C3CCCCC3)cc2C(=O)O)CC1
< 15	CC(C)(C)OC(=O)N1CCN(c2ccc(N(C(=O)n3nnn(-c4c(F)cccc4F)c3=O)C3CCCCC3)cc2C(=O)OCc2ccccc2)CC1
15 to 100	O=C(O)c1cc(N(C(=O)n2nnn(-c3c(F)cccc3F)c2=O)C2CCCCC2)ccc1N1CCOCC1
< 15	COc1cc(OC)c(N(C(=O)n2nnn(-c3c(F)cccc3F)c2=O)C2CCCCC2)cc1C(=O)O
< 15	CN(C)c1ccc(N(C(=O)n2nnn(-c3c(F)cccc3F)c2=O)C2CCCCC2)cc1C(=O)O
< 15	O=C(O)c1cc(N(C(=O)n2nnn(-c3c(F)cccc3F)c2=O)C2CCCCC2)cc2c1OCC2
< 15	O=C(OCc1ccccc1)c1cc(N(C(=O)n2nnn(-c3c(F)cccc3F)c2=O)C2CCCCC2)ccc1NCc1ccccc1
15 to 100	COc1ccc(N(C(=O)n2nnn(-c3c(F)cccc3F)c2=O)C2CCCCC2)c(OC)c1C(=O)O
< 15	COCCOCOc1ccc(N(C(=O)n2nnn(-c3c(F)cccc3F)c2=O)C2CCCCC2)cc1C(=O)O
< 15	COc1ccc(N(C(=O)n2nnn(-c3c(F)cccc3F)c2=O)C2CCCCC2)c(OC)c1C(=O)OCc1ccccc1
< 15	COCCOCOc1ccc(N(C(=O)n2nnn(-c3c(F)cccc3F)c2=O)C2CCCCC2)cc1C(=O)OCc1ccccc1
< 15	Nc1ccc(N(C(=O)n2nnn(-c3c(F)cccc3F)c2=O)C2CCCCC2)cc1C(=O)O
< 15	CC(C)(C)OC(=O)Nc1ccc(N(C(=O)n2nnn(-c3c(F)cccc3F)c2=O)C2CCCCC2)cc1C(=O)O
< 15	COc1ccc(C(=O)O)cc1N(C(=O)n1nnn(-c2c(F)cccc2F)c1=O)C(C)C
< 15	CC(C)N(C(=O)n1nnn(-c2c(F)cccc2F)c1=O)c1ccc(NS(C)(=O)=O)c(C(=O)O)c1
< 15	COc1ccc(C(=O)O)cc1N(C(=O)n1nnn(-c2c(F)cccc2F)c1=O)C1CCCCC1
< 15	CC(C)N(C(=O)n1nnn(-c2c(F)cccc2F)c1=O)c1ccc(N(S(C)(=O)=O)S(C)(=O)=O)c(C(=O)O)c1
< 15	COc1ccc(N(C(=O)n2nnn(-c3c(F)cccc3F)c2=O)C2CCCCC2)cc1C(=O)O
